Paper PMC5908784, “Extracellular loops 2 and 3 of the calcitonin receptor selectively modify agonist binding and efficacy” (Biochemical Pharmacology, 2018)
Where a chain is given by its changes, count along the chain named. Where a SMILES comes first, the peptide text is derived from it. Bridges are numbered along the chain shown (N, C = ends).

Legend:
Test in all cases: IP1 accumulation
Assay type in all cases: cell-based
Settings in all cases: mean ± S.E.M.; for Emax: IP1 maximal response, SEM
hCTR P360A = target: T1, hCTR P360A (Homo sapiens, UniProt P30988, P360A)
T1 construct: expressed in transfected cells
T1 sequence (P30988 25-474 P360A): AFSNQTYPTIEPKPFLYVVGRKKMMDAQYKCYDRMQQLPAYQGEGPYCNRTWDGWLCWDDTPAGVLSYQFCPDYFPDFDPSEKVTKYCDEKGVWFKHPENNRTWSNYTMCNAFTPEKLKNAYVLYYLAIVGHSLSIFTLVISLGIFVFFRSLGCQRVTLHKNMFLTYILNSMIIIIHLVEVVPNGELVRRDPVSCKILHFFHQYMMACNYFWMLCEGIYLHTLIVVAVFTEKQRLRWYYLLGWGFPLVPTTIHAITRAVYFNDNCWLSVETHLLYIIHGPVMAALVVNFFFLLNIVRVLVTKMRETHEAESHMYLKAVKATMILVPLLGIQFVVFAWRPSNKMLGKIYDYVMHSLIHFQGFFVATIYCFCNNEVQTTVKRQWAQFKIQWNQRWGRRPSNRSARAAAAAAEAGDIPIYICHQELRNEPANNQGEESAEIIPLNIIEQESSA
Procedure, shortened: (§1)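 Cells bearing the mutant calcitonin receptor were plated overnight, then stimulated with increasing ligand concentrations for 60 min in the presence of LiCl. Endogenous IP1 was read by HTRF after lysis.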

hCTR M376A = target: T2, hCTR M376A (Homo sapiens, UniProt P30988, M376A)
T2 construct: c-Myc (N); expressed in transfected cells
T2 sequence (P30988 25-474 M376A): T1 sequence (P30988 25-474 P360A) with A336P, M352A
Procedure, shortened: as §1

hCTR I371A = target: T3, hCTR I371A (Homo sapiens, UniProt P30988, I371A)
T3 construct: c-Myc (N); expressed in transfected cells
T3 sequence (P30988 25-474 I371A): T1 sequence (P30988 25-474 P360A) with A336P, I347A
Procedure, shortened: as §1

hCTR N365A = target: T4, hCTR N365A (Homo sapiens, UniProt P30988, N365A)
T4 construct: c-Myc (N); expressed in transfected cells
T4 sequence (P30988 25-474 N365A): T1 sequence (P30988 25-474 P360A) with A336P, N341A
Procedure, shortened: as §1

hCTR V293A = target: T5, hCTR V293A (Homo sapiens, UniProt P30988, V293A)
T5 construct: c-Myc (N); expressed in transfected cells
T5 sequence (P30988 25-474 V293A): T1 sequence (P30988 25-474 P360A) with V269A, A336P
Procedure, shortened: as §1

[1] = IP1, CV1-FlpIn cells, 60 min, LiCl

Row | EC50 (hCTR P360A; [1]) [nM] | EC50 (hCTR M376A; [1]) [nM] | EC50 (hCTR I371A; [1]) [nM] | EC50 (hCTR N365A; [1]) [nM] | EC50 (hCTR V293A; [1]) [nM] | Compound | Emax (hCTR P360A) [%] | Emax (hCTR M376A) [%] | Emax (hCTR I371A) [%] | Emax (hCTR N365A) [%] | Emax (hCTR V293A) [%]
1 | 85.1 | 5.62 | 4.17 | 2.24 | 3.24 | CSCC[C@H](NC(=O)CNC(=O)[C@H](CO)NC(=O)[C@H](Cc1ccccc1)NC(=O)[C@H](CCCNC(=N)N)NC(=O)[C@H](Cc1c[nH]cn1)NC(=O)[C@H](Cc1ccccc1)NC(=O)[C@H](CC(N)=O)NC(=O)[C@H](CC(N)=O)NC(=O)[C@H](CC(C)C)NC(=O)[C@H](CC(N)=O)NC(=O)[C@H](CCCNC(=N)N)NC(=O)[C@H](Cc1c[nH]c2ccccc12)NC(=O)[C@H](Cc1ccc(O)cc1)NC(=O)[C@H](C)NC(=O)[C@H](CO)NC(=O)[C@H](CC(C)C)NC(=O)[C@@H](NC(=O)[C@@H]1CSSC[C@H](N)C(=O)N[C@@H](CO)C(=O)N[C@@H](CC(N)=O)C(=O)N[C@@H](CC(C)C)C(=O)N[C@@H](CO)C(=O)N[C@@H]([C@@H](C)O)C(=O)N1)C(C)C)C(=O)NCC(=O)N[C@@H](Cc1ccccc1)C(=O)NCC(=O)N1CCC[C@H]1C(=O)N[C@@H](CCC(=O)O)C(=O)N[C@H](C(=O)N1CCC[C@H]1C(N)=O)[C@@H](C)O [pCT] (H-CSNLSTCVLSAYWRNLNNFHRFSGMGFGPETP-NH2; disulfide 1-7) | 107 ± 12 | 47 ± 4 | 61 ± 6 | 68 ± 6 | 112 ± 10
2 | – | – | – | – | – | CC(C)C[C@H](NC(=O)[C@H](CCCCN)NC(=O)CNC(=O)[C@H](CC(C)C)NC(=O)[C@@H](NC(=O)[C@@H]1CSSC[C@H](N)C(=O)N[C@@H](CO)C(=O)N[C@@H](CC(N)=O)C(=O)N[C@@H](CC(C)C)C(=O)N[C@@H](CO)C(=O)N[C@@H]([C@@H](C)O)C(=O)N1)C(C)C)C(=O)N[C@@H](CO)C(=O)N[C@@H](CCC(N)=O)C(=O)N[C@@H](CCC(=O)O)C(=O)N[C@@H](CC(C)C)C(=O)N[C@@H](Cc1c[nH]cn1)C(=O)N[C@@H](CCCCN)C(=O)N[C@@H](CC(C)C)C(=O)N[C@@H](CCC(N)=O)C(=O)N[C@H](C(=O)N[C@@H](Cc1ccc(O)cc1)C(=O)N1CCC[C@H]1C(=O)N[C@@H](CCCNC(=N)N)C(=O)N[C@H](C(=O)N[C@@H](CC(N)=O)C(=O)N[C@H](C(=O)NCC(=O)N[C@@H](CO)C(=O)NCC(=O)N[C@H](C(=O)N1CCC[C@H]1C(N)=O)[C@@H](C)O)[C@@H](C)O)[C@@H](C)O)[C@@H](C)O [sCT] | 144 ± 5 | 95 ± 4 | 31 ± 14 | 66 ± 4 | 109 ± 7
3 | – | – | – | – | – | CC[C@H](C)[C@H](NC(=O)[C@H](C)NC(=O)[C@@H](NC(=O)[C@H](CCC(N)=O)NC(=O)[C@@H]1CCCN1C(=O)[C@H](Cc1ccccc1)NC(=O)[C@@H](NC(=O)[C@H](Cc1c[nH]cn1)NC(=O)[C@H](Cc1ccccc1)NC(=O)[C@H](CCCCN)NC(=O)[C@H](CC(N)=O)NC(=O)[C@H](Cc1ccccc1)NC(=O)[C@H](CC(=O)O)NC(=O)[C@H](CCC(N)=O)NC(=O)[C@@H](NC(=O)[C@H](Cc1ccc(O)cc1)NC(=O)[C@@H](NC(=O)CNC(=O)[C@H](CC(C)C)NC(=O)[C@H](CCSC)NC(=O)[C@@H]1CSSC[C@H](N)C(=O)NCC(=O)N[C@@H](CC(N)=O)C(=O)N[C@@H](CC(C)C)C(=O)N[C@@H](CO)C(=O)N[C@@H]([C@@H](C)O)C(=O)N1)[C@@H](C)O)[C@@H](C)O)[C@@H](C)O)[C@@H](C)O)C(=O)NCC(=O)N[C@H](C(=O)NCC(=O)N[C@@H](C)C(=O)N1CCC[C@H]1C(N)=O)C(C)C [hCT] | 95 ± 8 | 52 ± 5 | 42 ± 3 | 81 ± 6 | 87 ± 4
